What was measured:
[1] = test system: TNF-α, IL-1β, IL-6, MCP-1; experiment: SCI: quantitative real time PCR of cytokines and chemokines in spinal cord; conditions: SCI mice, 24 h; dosing as E50; ICI 182,780 = co-administration with 17β-estradiol
Method: A longitudinal incision was made on the midline of the back, exposing the paravertebral muscles. These muscles were dissected away exposing T5-T8 vertebrae. […] Following surgery, 1 ml of saline was administered subcutaneously in order to replace the blood volume lost during surgery. During the surgery and recovery from anesthesia, the mice were placed on a warm heating pad and covered with a warm towel. The mice were singly housed in a temperature-controlled room at 27° C. and survival was measured over a period of 10 days. Food and water were provided to the mice ad libitum. During this time period, the animals' bladders were manually voided twice a day until the mice were able to regain normal bladder function. In all injured groups, the spinal cord was compressed for 1 min. Sham-injured animals were only subjected to laminectomy.
(§2) At different time points (see FIG. 30), the mice (n=10 from each group for each of the 3 time points) were sacrificed in order to evaluate the various parameters as described below.
Total cellular RNA was isolated from the aqueous phase then the levels of IL-α, TNF-α, MCP-1, IL-6 gene products were determined by Real Time PCR. The amount of each PCR product of gene target was normalized to Glyceraldehyde-3-phosphate dehydrogenase (GAPDH). The RNA extracted from spinal cord of individual mice was reverse trascripted into first strand cDNA with Random Hexamers and purified Avian Myeloblastosis Virus Reverse Transcriptase (Takara, Japan) in 20 ml of reaction after a DNAse treatment and stored at −80° C. until use. Primers pair for each cytokine was designed using the software Oligo (Molecular Biology Insights, Cascade, Colo., USA). The PCR reactions were performed using the following cycle conditions: a denaturation step for 15 minutes at 95° C. and 40 cycles of 30 seconds denaturation at 94° C., 30 seconds annealing (TNF-á 61° C., IL-6 54° C., IL-1β 61° C., MCP-1 54° C., GADPH 56° C.), 15 sec at 72° C. and 7 minutes of final extension at 72° C. The PCR products were visualized by electrophoresis on agarose gel 2% stained by ethidium bromide. The purified PCR products were cloned into a plasmid vector, transformed into the E. coli TOP 10 (Invitrogen) and purified with Turbo Kit (QBIOgene, Calif., USA). The recombinant plasmid was linearized upstream the target sequence using the restriction endonuclease PmeI (Fermentas, Canada). Tenfold dilutions of recombinant plasmid from 10^9 copies down to 10^1 copies were used as standards. The real time PCR assay was developed and evaluated on the Rotor-Gene 3000 system (Corbett Research, Australia). […] The signal was acquired on the FAM channel (multichannel machine) (source, 470 nm; detector, 510 nm; gain set to 5) with the fluorescence reading taken at the end of each 72° C. step. […]

Bax and Bcl-2 = experiment: SCI: Western blot analysis for Bax and Bcl-2; format: in vivo, mouse; conditions: spinal cord, 24 hours after SCI; ICI 182,780 = co-administration with 17β-estradiol
Method: (§1) Mice were anaesthetized using chloral hydrate (400 mg/kg body weight) (Genovese 2006). A longitudinal incision was made on the midline of the back, exposing the paravertebral muscles. These muscles were dissected away exposing T5-T8 vertebrae. The spinal cord was exposed via a four-level T6-T7 laminectomy and SCI was produced by extradural compression using an aneurysm clip with a closing force of 24 g. Following surgery, 1 ml of saline was administered subcutaneously in order to replace the blood volume lost during surgery. During the surgery and recovery from anesthesia, the mice were placed on a warm heating pad and covered with a warm towel. The mice were singly housed in a temperature-controlled room at 27° C. and survival was measured over a period of 10 days. Food and water were provided to the mice ad libitum. […]
For Western blot analysis, 70 μg protein of lysates were mixed with gel loading buffer (50 mM Tris, 10% (w/v), sodium dodecyl sulphate (SDS), 10% (w/v) glycerol, 10% (v/v) 2- mercaptoethanol, 2 mg/ml bromophenol), boiled for 5 min, and subjected to SDSPAGE (12% polyacrylamide). […] The protein bands of Bax (23˜kDa), or Bcl -2 (26˜kDa) on x-ray film were scanned and densitometrically analyzed with a model GS-700 imaging densitometer (Bio-Rad Laboratories). […]

Adult male CD1 mice = experiment: Spinal cord injury (SCI): light microscopy, histological score, Luxol fast blue; format: in vivo, mouse
Method: as §1, with “days.” for “days. Food and water were provided to the mice ad libitum.”
The segments of each spinal cord were evaluated by an experienced histopathologist (RO). Damaged neurons were counted and the histopathologic changes of the gray matter were scored on a 6-point scale (Sirin 2000): 0, no lesion observed, 1, gray matter contained 1 to 5 eosinophilic neurons; 2, gray matter contained 5 to 10 eosinophilic neurons; 3, gray matter contained more than 10 eosinophilic neurons; 4, small infarction (less than one third of the gray matter area); 5, moderate infarction; (one third to one half of the gray matter area); 6, large infarction (more than half of the gray matter area). […]

[2] = test system: Myeloperoxidase (MPO) activity; experiment: SCI: myeloperoxidase activity (neutrophil infiltration); format: in vivo, mouse; conditions: SCI mice, 24 hours; dosing as E50; ICI 182,780 = co-administration with 17β-estradiol
Method: Mice were anaesthetized using chloral hydrate (400 mg/kg body weight) (Genovese 2006). A longitudinal incision was made on the midline of the back, exposing the paravertebral muscles. These muscles were dissected away exposing T5-T8 vertebrae. The spinal cord was exposed via a four-level T6-T7 laminectomy and SCI was produced by extradural compression using an aneurysm clip with a closing force of 24 g. Following surgery, 1 ml of saline was administered subcutaneously in order to replace the blood volume lost during surgery. During the surgery and recovery from anesthesia, the mice were placed on a warm heating pad and covered with a warm towel. The mice were singly housed in a temperature-controlled room at 27° C. and survival was measured over a period of 10 days. Food and water were provided to the mice ad libitum. During this time period, the animals' bladders were manually voided twice a day until the mice were able to regain normal bladder function. In all injured groups, the spinal cord was compressed for 1 min. […] Myeloperoxidase (MPO) activity, an indicator of PMN accumulation, was determined as previously described (Mullane 1985) 24 h after SCI. […] The rate of change in absorbance was measured spectrophotometrically at 650 nm. MPO activity was defined as the quantity of enzyme degrading 1 μmol of peroxide per minute at 37° C. and was expressed in milliunits/g of wet tissue.

[3] = test system: Nitrotyrosine, iNOS, MPO, COX-2, Bax and Bcl-2; experiment: SCI: immunohistochemical localization of nitrotyrosine, iNOS, MPO, COX-2, Bax and Bcl-2; conditions: ICI 182,780 = co-administration with 17β-estradiol
Method: A longitudinal incision was made on the midline of the back, exposing the paravertebral muscles. These muscles were dissected away exposing T5-T8 vertebrae. […] Following surgery, 1 ml of saline was administered subcutaneously in order to replace the blood volume lost during surgery. During the surgery and recovery from anesthesia, the mice were placed on a warm heating pad and covered with a warm towel. […] Food and water were provided to the mice ad libitum. During this time period, the animals' bladders were manually voided twice a day until the mice were able to regain normal bladder function. In all injured groups, the spinal cord was compressed for 1 min. Sham-injured animals were only subjected to laminectomy.
as §2
At 24 h after SCI, the tissues were fixed in 10% (w/v) PBS-buffered formaldehyde and 8-μm sections were prepared from paraffin embedded tissues. After deparaffinization, endogenous peroxidase was quenched with 0.3% (v/v) hydrogen peroxide in 60% (v/v) methanol for 30 min. The sections were permeabilized with 0.1% (w/v) Triton X-100 in PBS for 20 min. Non-specific adsorption was minimized by incubating the section in 2% (v/v) normal goat serum in PBS for 20 min. Endogenous biotin or avidin binding sites were blocked by sequential incubation for 15 min with biotin and avidin (DBA), respectively. Sections were incubated overnight with antinitrotyrosine rabbit polyclonal antibody (Upstate; 1:500 in PBS, v/v), with anti-iNOS polyclonal antibody rat (1:500 in PBS, v/v), anti-COX-2 monoclonal antibody (1:500 in PBS, v/v), anti-Bax rabbit polyclonal antibody (Santa Cruz Biotechnology, Inc., Santa Cruz, Calif.; 1:500 in PBS, v/v), or with anti-Bcl-2 polyclonal antibody rat (Santa Cruz Biotechnology, Inc., Santa Cruz, Calif.; 1:500 in PBS, v/v), or with anti-MPO polyclonal antibody (Santa Cruz Biotechnology, Inc., Santa Cruz, Calif.; 1:500 in PBS, v/v). Sections were washed with PBS, and incubated with secondary antibody. Specific labeling was detected with a biotin-conjugated goat anti-rabbit IgG and avidin-biotin peroxidase complex (DBA) and counterstained whith nuclear fast red. To verify the binding specificity for nitrotyrosine, iNOS, COX-2, Bax, and Bcl-2, some sections were also incubated with only the primary antibody (no secondary) or with only the secondary antibody (no primary).

[4] = SCI mice, 24 hours, dosing as E50
[5] = spinal cord, 24 hours after SCI

C[C@]12CC[C@@H]3c4ccc(O)cc4C[C@@H](CCCCCCCCC[S+]([O-])CCCC(F)(F)C(F)(F)F)[C@H]3[C@@H]1CC[C@@H]2O (stereo partly drawn) [ICI 182,780]
tissue levels of IL-1β (mRNA) [1]: significantly blocked the effect of the 17β-estradiol | tissue levels of IL-6 (mRNA) [1]: significantly blocked the effect of the 17β-estradiol | tissue levels of MCP-1 (mRNA) [1]: significantly blocked the effect of the 17β-estradiol | tissue levels of TNF-α (mRNA) [1]: significantly blocked the effect of the 17β-estradiol | Bax expression (Western blot) (Bax and Bcl-2): significantly blocked the effect of the 17β-estradiol on Bax expression | Bcl-2 expression (Western blot) (Bax and Bcl-2): significantly blocked the effect of the 17β-estradiol on the Bcl2 expression | histological alteration of spinal cord (H&E, histological score) (Adult male CD1 mice; 24 hours after injury, 17β-estradiol 300 μg/kg s.c. 1 h before, 3 h and 6 h after SCI, ICI 182,780 rows: 500 μg/kg s.c. 1 hour before 17β-estradiol (co-administration)): significantly blocked the effect of the 17β-estradiol on the histological alteration | myelin structure (Luxol fast blue staining) (Adult male CD1 mice; 24 hours, dosing as E50, ICI 182,780 = co-administration with 17β-estradiol): significantly blocked the effect of the 17β-estradiol | MPO activity in the spinal cord (neutrophil infiltration) [2]: significantly blocked the effect of the 17β-estradiol on the neutrophils infiltration | immunohistological staining for COX-2 [3, 4]: significantly blocked the effect of the 17β-estradiol on COX-2 expression | immunohistological staining for iNOS [3, 4]: significantly blocked the effect of the 17β-estradiol on iNOS expression | immunohistological staining for nitrotyrosine [3, 4]: significantly blocked the effect of the 17β-estradiol | staining for MPO [3, 4]: significantly blocked the effect of the 17β-estradiol on the MPO | immunohistological staining for Bax [3, 5]: significantly blocked the effect of the 17β-estradiol | immunohistological staining for Bcl-2 [3, 5]: significantly blocked the effect of the 17β-estradiol

Source: patent US9301970B2, “Methods and compositions for treating trauma-hemorrhage using estrogen and derivatives thereof” (The UAB Research Foundation, priority 2006, dated 2016)
